From US12158470B2, “Methods and compositions for live cell analysis of intracellular ATP” (Sartorius BioAnalytical Instruments, Inc., priority 2018, dated 2024)
Entries after “also recorded” stand apart in the source; their conditions may differ.

Columns and labels:
[1] = tested on: triple-negative breast cancer (TNBC) cell lines; assay: Live cell ATP sensor imaging after compound treatment, TNBC cell lines; format: cell-based
Description: (§1) Cancer cell lines stably expressing a genetically encoded, fluorescent ATP sensor or a control (non-ATP binding) sensor were generated. Cell lines were cultured in recommended media conditions except for studies evaluating the effects of the glutaminase-1 (GLS1) inhibitor CB-839, for which cells were adapted to RPMI supplemented with 10% FBS prior to experimentation. […] Cellular ATP levels were measured over the course of hours to days following compound treatment.
(§2) A live cell imaging approach was then utilized to evaluate the effect of cancer therapeutics on ATP levels in tumor cell lines, focusing primarily on compounds that target metabolic vulnerabilities. […] Quantification of phase confluence confirmed that sustained decreases in ATP were associated with enhanced antiproliferative efficacy compared to conditions under which recovery of ATP levels were observed.

[2] = tested on: receptor-positive breast cancer lines; assay: Live cell ATP sensor imaging after compound treatment, receptor-positive breast cancer lines; format: cell-based
Description: as §1, §2

## O=C(Cc1cccc(OC(F)(F)F)c1)Nc1ccc(CCCCc2nnc(NC(=O)Cc3ccccn3)s2)nn1 [CB-839]
[1]; TNBC cultured on a monolayer of CCD-1068Sk fibroblasts
  effect on ATP levels in co-culture: diminished effects on ATP levels; also recorded: attenuated by co-culture with CCD-1068Sk fibroblasts
[1]; TNBC, mono-culture, three-day time course
  effect on ATP levels: rapid drop in ATP; also recorded: remained below that of vehicle-treated cells for the duration of the three-day time course; also recorded: prolonged ATP depletion
[2]; receptor-positive cell lines, mono-culture
  effect on ATP levels: no change to more modest decreases in ATP
[2]; receptor-positive cells
  time to recovery of ATP levels: ≤ 48 h
[2]; receptor-positive lines with CCD-1068Sk fibroblasts
  effect of co-culture on the ATP response: unaffected by the presence of CCD-1068Sk fibroblasts
